# According to patent US20240173323A1, “COMBINATION THERAPY FOR CANCER TREATMENT” (Takeda Pharmaceutical Company Limited, priority 2021, published 2024):
# “Also recorded” adds a separate entry of the source.
# Test system: PHTXS-13O human primary ovarian cancer xenografts
# Assay: In vivo antitumor activity of Compound 1 in combination with PARP inhibitor in Patient Derived Xenograft (PDX) model
# Conditions: PHTXS-13O PDX in nude mice
# Method: To investigate in vivo antitumor activity of Compound 1 in combination with PARP inhibitor, tests using Patient Derived Xenograft (PDX) model were conducted. Patient Derived Tumors were inoculated by the following Method.
# Method: Patient Derived Tumors were maintained in nude mice by subcutaneous inoculation of tumor pieces (approx. 2×2×2 mm) into nude mice. Mice with tumor size of approximately 130 mm^3 (e.g., 125-130 mm^3) for xenograft studies were randomly assigned to dose groups on the day (Day 0) before start date of dosing.
# Compound 1 (crystalline form I) was suspended in solution comprising 0.5 w/v % methylcellulose and administered orally to mice.
# Tumor size was measured by caliper and tumor volume was estimated using the equation V=(LW^2)/2, where L and W are tumor length and width, respectively and reported in cubic millimeters.
# Statistical analyses of combination effect for tumor growth was conducted as follows; […]
# For synergy analyses, the observed differences in the log tumor values were used to calculate AUC values for each animal In instances when an animal in a treatment group was removed from the study, the last observed tumor value was carried forward through all subsequent time points. The AUC for the control, or vehicle, group was calculated using the predicted values from the pairwise models described above. […]
smiles,measurement,setting,value
"Cc1[nH]ncc1-c1cc2nc([C@@H]3CC4CCN3CC4)[nH]c(=O)c2s1 [Compound 1, 2-[(2S)-1-azabicyclo[2.2.2]oct-2-yl]-6-(3-methyl-1H-pyrazol-4-yl)thieno[3,2-d]pyrimidin-4(3H)-one]",antitumor activity (tumor volume) of Compound 1 combined with olaparib,"Compound 1 40 or 60 mg/kg once daily orally Day 1-14 + olaparib 25 or 50 mg/kg daily orally Days 1-14, compared to either single treatment alone (FIG. 2)",good antitumor efficacy; also recorded: strong antitumor activity
same,antitumor activity (tumor volume) of Compound 1 combined with niraparib,"Compound 1 40 or 60 mg/kg once daily orally Day 1-21 + niraparib 25 or 50 mg/kg daily orally Days 1-21, compared to either single treatment alone (FIG. 1)",good antitumor efficacy; also recorded: strong antitumor activity
